Where a SMILES comes first, the peptide text is derived from it. [ ]: non-standard residue; d: D form. The star is where a group is joined. Dolaproine = CO[C@@H]([C@@H]1CCCN1)[C@@H](C)C(=O)O; Dil = CC[C@H](C)[C@H](NC)[C@@H](CC(=O)O)OC; X1 = C[C@@H](N*)[C@@H](O)c1ccccc1; NMeV = CN[C@H](C(=O)O)C(C)C
Key:
[1] = test system: orthotopically grafted human pancreatic tumor of Mia Paca type (Mia PaCa 2-Luc cells); assay: Therapeutic efficacy in vivo on a murine model of human pancreatic cancer (two weekly injections, D7 and D14); parameters: species or system Swiss Nude mice; conditions: 2 injections (D7 and D14), echography over 70 days, FIG. 2
Experimental: The therapeutic efficacy of the conjugate of formula (III), as synthesized according to the reaction protocol described in example 1, was evaluated on 6-week-old female Swiss Nude mice (Charles River France Laboratories, l'Arbresle). The animals were acclimatized for 7 days in the laboratory before the experiment. The mice were housed in plastic cages equipped with filtering lids (HEPA filter), in a ventilated cage rack, housed at a temperature of 20±2° C. with a light/dark cycle of 12/12 hours, with free access to water and food ad libitum.
The Mia Paca 2 cells originate from a pancreatic adenocarcinoma from a person. The Mia Paca 2 pancreatic cancer cell line was supplied by the American Type Culture Collection (Rockville, Md.). These cells were chosen since they make it possible to generate tumors of hypoxic nature, reflecting the clinical pathological situation.
These cells were modified to express the luciferase gene (Mia PaCa 2-Luc). The cells were cultured in […] flasks and maintained in a humidified incubator at 37° C. in 5% CO2 with Dulbecco's Modified Eagle Medium (DMEM) supplemented with 10% of fetal calf serum, 2.5% of horse serum, 1% of L-glutamine and 1% of penicillin and streptomycin.
For the implantations, the abdomens of the mice were disinfected with an iodinated povidone solution (Betadine®, ASTA Medica, Belgium). A 1 cm incision was made in the upper left quadrant of the abdomen. The end of the tail of the pancreas was seized and the pancreas and also the spleen were gently externalized in a lateral direction so as to be fully exposed. The needle was inserted into the tail of the pancreas and positioned just in the region of the head of the pancreas. 2×10^6 Mia PaCa 2-Luc cells in 50 μl of PBS were slowly injected using a 27-caliber needle. The spleen was then put back into the appropriate position in the abdomen and the skin and the peritoneum were sutured with a 5.0-diameter resorbable thread. […]
The evolution of the tumor volume was monitored by echography. […]

[2] = test system: orthotopically grafted human breast tumor of MDA-MB-231 type (MDA-MB-231-Luc cells); assay: Therapeutic efficacy in vivo on a murine model of human breast cancer; parameters: species or system Balb/c Nude mice
Experimental: The therapeutic efficacy of the conjugate of formula (III), as synthesized according to the reaction protocol described in example 1, was evaluated on 6-week-old female Balb/c Nude mice (Charles River France Laboratories—L'Arbresle) as indicated in example 3.
The MDA-MB-231 cells originate from a mammary adenocarcinoma from a person. The MDA-MB-231 mammary cancer cell line was supplied by Caliper LifeSciences (Roissy, France). These cells were chosen because they make it possible to generate tumors of hypoxic nature, reflecting the clinical pathological situation.
These cells are modified to express the luciferase gene. The cells were cultured in […] flasks and maintained in a humidified incubator at 37° C. under an atmosphere consisting of air, with Eagle's Minimal Essential Medium (EMEM) supplemented with 10% of fetal calf serum, 1% of L-glutamine, 1% of sodium pyruvate, 1% of non-essential amino acids, 2% of sodium bicarbonate and 1% of penicillin and streptomycin.
For the implantations, the abdomens of the mice were disinfected with an iodinated povidone solution (Betadine®, ASTA Medica, Belgium). The needle was inserted into the subcutaneous space, at the level of the lower left teat. 2×10^6 MDA-MB-231-Luc cells in 100 μl of PBS was slowly injected using a 27-caliber needle. The needle was then slowly withdrawn. For this, the mice will be anesthetized by inhalation of isoflurane (2% in air).
The mice (6 animals per group) received a treatment 15 days after the tumor implantations. The intravenous injections were carried out once a week for 5 weeks with doses of 4 mg/kg of conjugate of formula (III) (D15, D22, D29, D36 and D43). The control groups were treated either with MMAE alone with a dose of 0.3 mg/kg, or with the excipient consisting of a mixture of DMSO and PBS (5%/95%).
The evolution of the tumor volume was monitored by 3D echography. The measurements were carried out as described in example 2, on days 7, 11, 15, 19, 22, 25, 27, 29, 32, 34, 36, 39, 43 and 50.

Structure (SMILES): CC[C@H](C)[C@@H]([C@@H](CC(=O)N1CCC[C@H]1[C@H](OC)[C@@H](C)C(=O)N[C@H](C)[C@@H](O)c1ccccc1)OC)N(C)C(=O)[C@@H](NC(=O)[C@@H](NC)C(C)C)C(C)C [MMAE, monomethyl auristatin E, reference compound] (H-[NMeV]V[Dil][Dolaproine]-X1)
- evolution of the tumor volume ([1]; 0.3 mg/kg intravenous): significant increase in the tumor volume is observed starting from day 35
- evolution of the tumor volume (antitumor activity versus control animals) ([2]; MMAE alone 0.3 mg/kg (FIG. 4 legend: 0.5 mg/kg) intravenous once a week for 5 weeks, FIG. 4 panel B): only a very modest antitumor activity

Structure (SMILES): CC[C@@H](C)[C@H]([C@H](CC(=O)N1CCC[C@@H]1[C@@H](OC)[C@H](C)C(=O)N[C@@H](C)[C@H](O)c1ccccc1)OC)N(C)C(=O)[C@H](NC(=O)[C@@H](C(C)C)N(C)C(=O)OC(Cc1cn(CCOCCOCCOCCOCCOCCOCCOCCOCCOCCOCCNC(=O)CCCCCN2C(=O)C=CC2=O)nn1)c1ccc(O[C@@H]2OC(C(=O)O)[C@@H](O)[C@H](O)C2O)c([N+](=O)[O-])c1)C(C)C (stereo partly drawn) [conjugate of formula (III)]
- evolution of the tumor volume ([1]; 2 mg/kg intravenous): the progression of the tumor volume is slower than with the control or the non-functionalized MMAE
- evolution of the tumor volume ([1]; 4 mg/kg intravenous): total absence of tumor growth
- visible side effects ([2]; 4 mg/kg intravenous once a week for 5 weeks): without visible side effects
- evolution of the tumor volume ([2]; 4 mg/kg intravenous once a week for 5 weeks (D15-D43), echography for 50 days, FIG. 4 panel C): total and long-lasting regression of the tumor
